Reference: patent US10213422B2, “Compositions and methods of inhibiting histone deacetylases” (YALE UNIVERSITY, priority 2014, dated 2019)

Assays:
[1] = pulmonary artery banding, previous study; cited from earlier work
HDAC4 [2] = target: T1, HDAC4 (Homo sapiens, UniProt P56524); experiment: HDAC4 degradation in PAECs from a PAH patient (western blot); format: cell-based; conditions: 1 μM for 24 hr
T1 construct: phosphorylation of endogenously expressed HDAC4 and HDAC5; endogenous in cells; host or cells: PAECs from PAH patient(s)
T1 sequence (P56524 whole entry): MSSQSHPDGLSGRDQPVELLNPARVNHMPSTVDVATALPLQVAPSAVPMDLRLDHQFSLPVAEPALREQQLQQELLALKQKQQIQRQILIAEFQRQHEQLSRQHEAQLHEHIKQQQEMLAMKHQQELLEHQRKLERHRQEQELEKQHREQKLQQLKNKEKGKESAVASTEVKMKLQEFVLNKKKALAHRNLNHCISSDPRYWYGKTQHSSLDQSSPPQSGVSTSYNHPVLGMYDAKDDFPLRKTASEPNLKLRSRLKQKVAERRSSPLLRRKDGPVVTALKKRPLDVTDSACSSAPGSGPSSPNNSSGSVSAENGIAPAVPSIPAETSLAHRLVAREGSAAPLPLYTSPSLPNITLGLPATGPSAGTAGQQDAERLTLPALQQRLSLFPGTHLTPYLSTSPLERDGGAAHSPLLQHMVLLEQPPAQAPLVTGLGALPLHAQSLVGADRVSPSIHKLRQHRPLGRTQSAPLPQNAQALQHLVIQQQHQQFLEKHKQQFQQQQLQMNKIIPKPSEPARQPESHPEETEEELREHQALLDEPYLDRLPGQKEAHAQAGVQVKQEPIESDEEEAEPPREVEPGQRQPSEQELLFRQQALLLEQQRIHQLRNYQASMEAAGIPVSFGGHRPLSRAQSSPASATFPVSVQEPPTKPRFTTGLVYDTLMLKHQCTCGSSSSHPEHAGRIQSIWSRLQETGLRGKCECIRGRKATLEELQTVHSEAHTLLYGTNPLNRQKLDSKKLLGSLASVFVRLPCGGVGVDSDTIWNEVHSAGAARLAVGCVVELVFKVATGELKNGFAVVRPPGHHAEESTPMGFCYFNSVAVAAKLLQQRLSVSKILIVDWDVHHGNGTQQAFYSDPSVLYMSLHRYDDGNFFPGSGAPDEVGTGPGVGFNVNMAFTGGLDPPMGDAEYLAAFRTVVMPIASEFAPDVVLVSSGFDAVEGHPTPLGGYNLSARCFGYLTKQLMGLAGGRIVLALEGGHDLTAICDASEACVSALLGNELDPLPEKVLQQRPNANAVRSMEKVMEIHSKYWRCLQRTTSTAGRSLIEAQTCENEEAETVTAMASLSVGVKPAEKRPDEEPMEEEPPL

[3] = test system: rats with experimental pulmonary hypertension; experiment: Experimental pulmonary hypertension models in rats (MCT and SU-5416/hypoxia): hemodynamic, morphometric and cardiac analyses; format: in vivo, rat; conditions: for right ventricular hypertrophy (right ventricle to left ventricle plus septum weight ratios): SU5416/hypoxia, vs. control; for right ventricular systolic pressures: SU-5416/hypoxia, vs. DMSO
Experimental: Rat lung tissues were fixed and stained as previously described (Nature medicine 19, 74-82 (2013)). Standard methods (Trichrome Stain, Sigma) were used to stain for collagen in cardiac sections.
(§1) Male Sprague Dawley rats (200-250 g; Charles River Laboratories) were subcutaneously injected with monocrotaline (Sigma) (60 mg per kg body weight) for the MCT model. For the SUGEN model, SU-5416 (Sigma) was resuspended in DMSO (Sigma) and injected subcutaneously (20 mg per kg body weight). Rats were subsequently exposed to hypoxia (10% FiO2) for 2 weeks. Rats were given intraperitoneal administration of either the vehicle (DMSO), MC1568 (Sellek Chemicals and DC Chemicals) (50 mg per kg body weight), TMP269 (DC Chemicals) (intraperitoneal injection of 50 mg/kg/day for two weeks), or Tasquinimod (DC Chemicals) (oral gavage of 10 mg/kg/day for two weeks) daily as indicated (FIG. 13).
Right ventricular systolic pressure (RVSP) measurements were performed at the designated time points under isoflurane by inserting a catheter (Millar Instruments) into the right jugular vein as described previously.^21 Lungs were perfused with normal saline and fixed in 4% paraformaldehyde overnight for immunohistochemistry or snap frozen in liquid nitrogen for protein and RNA analyses. Hearts were dissected and weighed for calculation of the right ventricle to the left ventricle plus septum weight ratio. The same full section in the midportion of the left lung parallel to the hilum was used and embedded in the same manner for lung morphometric analyses. Pulmonary artery muscularization was assessed at ×200 magnification after staining for vWF and SMA by calculating the ratio of the number of muscularized peripheral pulmonary arteries to the number of total peripheral pulmonary arteries (with diameters less than 75 μm) in five random fields per lung (with each field at ×200 magnification). The total number of vessels less than 75 μm was expressed as the number of vessels counted per random microscope field (five random fields per lung at ×200 magnification). Pulmonary arteries with proliferating cells were assessed in PCNA stained lung sections. Vessels with one or more PCNA staining cell were considered to be PNCA positive. All measurements were carried out by investigators blinded to the experimental condition.

HDAC5 [4] = target: T2, HDAC5 (Homo sapiens, UniProt Q9UQL6); experiment: HDAC5 degradation in PAECs from a PAH patient (western blot); format: cell-based; conditions: 1 μM for 24 hr
T2 construct: phosphorylation of endogenously expressed HDAC4 and HDAC5; endogenous in cells; host or cells: PAECs from PAH patient(s)
T2 sequence (Q9UQL6 whole entry): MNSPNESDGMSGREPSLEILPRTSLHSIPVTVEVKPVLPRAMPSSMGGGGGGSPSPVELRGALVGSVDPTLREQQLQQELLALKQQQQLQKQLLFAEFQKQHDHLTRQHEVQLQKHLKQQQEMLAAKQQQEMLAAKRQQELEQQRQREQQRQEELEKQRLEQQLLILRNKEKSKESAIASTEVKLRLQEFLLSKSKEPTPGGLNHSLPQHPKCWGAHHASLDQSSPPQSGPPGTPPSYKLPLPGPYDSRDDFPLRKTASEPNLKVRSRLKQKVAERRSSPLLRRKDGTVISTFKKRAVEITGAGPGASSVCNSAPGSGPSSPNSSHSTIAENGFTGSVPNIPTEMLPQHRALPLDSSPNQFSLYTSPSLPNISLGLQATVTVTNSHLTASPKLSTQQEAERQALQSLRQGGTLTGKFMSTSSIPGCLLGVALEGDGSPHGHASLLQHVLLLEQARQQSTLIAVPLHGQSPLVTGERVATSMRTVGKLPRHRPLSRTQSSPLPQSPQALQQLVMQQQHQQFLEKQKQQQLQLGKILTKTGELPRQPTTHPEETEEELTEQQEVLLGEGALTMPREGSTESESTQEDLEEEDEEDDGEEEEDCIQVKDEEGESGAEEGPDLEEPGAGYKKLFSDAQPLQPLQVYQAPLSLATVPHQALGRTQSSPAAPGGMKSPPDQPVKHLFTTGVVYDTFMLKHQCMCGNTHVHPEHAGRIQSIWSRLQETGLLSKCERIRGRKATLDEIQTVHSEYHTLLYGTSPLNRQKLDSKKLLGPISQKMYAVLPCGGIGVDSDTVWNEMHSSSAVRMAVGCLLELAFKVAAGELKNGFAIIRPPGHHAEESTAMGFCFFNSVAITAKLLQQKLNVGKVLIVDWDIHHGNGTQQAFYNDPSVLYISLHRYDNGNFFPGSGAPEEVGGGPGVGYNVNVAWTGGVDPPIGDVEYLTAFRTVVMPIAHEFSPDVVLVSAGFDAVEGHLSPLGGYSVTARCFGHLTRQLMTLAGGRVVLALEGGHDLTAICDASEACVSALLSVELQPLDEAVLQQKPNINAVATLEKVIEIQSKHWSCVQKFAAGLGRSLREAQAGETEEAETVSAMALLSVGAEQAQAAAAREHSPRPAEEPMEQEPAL

[5] = test system: MEF2 transcriptional targets (Cx37, Cx40, KLF2); experiment: MEF2 target expression in PAH PAECs (RT-PCR); format: cell-based, human; conditions: 1 μM for 24 h, vs. control/DMSO
Experimental: (§2) PAECs were isolated from normal and PAH explanted donor lungs, as described previously. Additional control PAECs were obtained from Lonza. PAECs from eleven control subjects, seven subjects with IPAH and three subjects with FPAH were studied. In brief, human pulmonary arteries were dissected from the lungs to the distal small arterioles, and PAECs were harvested from the isolated pulmonary arterial tree. PAECs were grown in EBM-2 basal medium supplemented with EGM-2 (Lonza) on fibronectin-coated plates. Cells were passaged at 70-80% confluency, and primary cultures of passages 3 to 7 were used in experiments. All apelin stimulations were done using apelin-13 peptide at 1 μM (Sigma). TSA (Sigma), MC1568 (Selleck Chemicals and DC Chemicals), TMP269 (DC Chemicals), and Tasquinimod (DC Chemicals) were dissolved in DMSO (Sigma) and used at the indicated doses. Total RNA was extracted with an RNA isolation kit, (miRNeasy RNA, Qiagen). Purified RNA was reverse transcribed with a cDNA synthesis kit (iScript cDNA Synthesis Kit, Bio-Rad). RT-PCR was performed with TaqMan probes for both genes and miRNAs (Applied Biosystems). All miRNA data were normalized to the internal control small RNAs RNU19 and HY3 for human samples and U87 for rat samples. For the mRNA samples, ribosomal 18S was used as an internal control. […]

PAH PAECs [6] = experiment: PAH PAEC migration assay; format: cell-based, human; conditions: 1 μM
Experimental: PAECs were grown to post-confluence in 24-well plates, and then subjected to injury using a plastic pipette tip. They were then treated with vehicle or MC1568 (1 μM). The cells were allowed to migrate for 8 h, and the gap distance was calculated in at least five randomly selected microscopic fields per each sample.

[7] = test system: human coronary artery endothelial cells; experiment: Caspase 3 cleavage in human coronary artery endothelial cells; format: cell-based
[8] = test system: MEF2 transcriptional targets (Cx37, Cx40 and KLF2); experiment: MEF2 transcriptional target expression in PH model rats; format: in vivo, rat; conditions: PH models, MC1568 50 mg per kg intraperitoneal daily, vs. DMSO
Experimental: Total RNA was extracted with an RNA isolation kit, (miRNeasy RNA, Qiagen). Purified RNA was reverse transcribed with a cDNA synthesis kit (iScript cDNA Synthesis Kit, Bio-Rad). RT-PCR was performed with TaqMan probes for both genes and miRNAs (Applied Biosystems). All miRNA data were normalized to the internal control small RNAs RNU19 and HY3 for human samples and U87 for rat samples. For the mRNA samples, ribosomal 18S was used as an internal control. Individual RT-PCRs were performed on a CFX96 (Bio-Rad) according to the manufacturer's instructions. […]
Right ventricular systolic pressure (RVSP) measurements were performed at the designated time points under isoflurane by inserting a catheter (Millar Instruments) into the right jugular vein as described previously.^21 Lungs were perfused with normal saline and fixed in 4% paraformaldehyde overnight for immunohistochemistry or snap frozen in liquid nitrogen for protein and RNA analyses. […] Pulmonary artery muscularization was assessed at ×200 magnification after staining for vWF and SMA by calculating the ratio of the number of muscularized peripheral pulmonary arteries to the number of total peripheral pulmonary arteries (with diameters less than 75 μm) in five random fields per lung (with each field at ×200 magnification). […] Pulmonary arteries with proliferating cells were assessed in PCNA stained lung sections. […]

class IIa HDACs = conditions: cited from earlier work
PAH PAECs [9] = experiment: PAH PAEC proliferation assay; format: cell-based, human; conditions: PAH PAECs vs. DMSO
Experimental: PAECs (5×10^3 cells per well) were plated in a 96-well plate and treated with DMSO or MC1568. Cell proliferation was measured by a colorimetric kit for determining cell viability (CellTiter 96 AQueous One Solution Cell Proliferation Assay, Promega) per manufacturer's protocol.

FGF2 [10] = experiment: FGF2 expression in lungs of PH model rats; format: in vivo, rat; conditions: two PH models, lung homogenates, MC1568 50 mg per kg intraperitoneal daily
Experimental: as §1
Right ventricular systolic pressure (RVSP) measurements were performed at the designated time points under isoflurane by inserting a catheter (Millar Instruments) into the right jugular vein as described previously.^21 Lungs were perfused with normal saline and fixed in 4% paraformaldehyde overnight for immunohistochemistry or snap frozen in liquid nitrogen for protein and RNA analyses. […] The total number of vessels less than 75 μm was expressed as the number of vessels counted per random microscope field (five random fields per lung at ×200 magnification). Pulmonary arteries with proliferating cells were assessed in PCNA stained lung sections. […]

FGF2 [11] = experiment: FGF2 expression in PAH PAECs; format: cell-based, human; conditions: 1 μM for 24 h
Experimental: as §2

HDAC5 [12] = conditions: PAH PAECs, apelin 1 μM for 1 h
Experimental: (§3) Western blotting was performed as previously described (eriosclerosis, thrombosis, and vascular biology 31, 814-820 (2011)). Each western blot is representative of three independent experiments done in triplicate. For the generation of cell lysates, lysis buffer (RIPA, Thermo Scientific) containing a protease and phosphatase inhibitor cocktail (Halt Protease and Phosphatase Inhibitor, Thermo Scientific) was used. Protein contents were measured using a detergent-compatible protein concentration assay (DC™ assay, Bio-Rad).

HDAC4 [13] = conditions: PAH PAECs, apelin 1 μM for 1 h
Experimental: as §3

HDAC5-GFP = conditions: PAH PAECs, apelin 1 μM for 1 h
Experimental: (§4) For the apelin effect on HDAC4/5 translocation, PAECs plated on glass bottom culture dish (Mat-Tek) were transfected with GFP-tagged HDAC4 and HDAC5 expression vectors for 24 hours. Cells were imaged using a Nikon Eclipse Ti confocal microscopy before and after treatment with apelin 13 (1 μM for 1 h at 37° C.).

HDAC4-GFP = conditions: PAH PAECs, apelin 1 μM for 1 h
Experimental: as §4

MEF2 = conditions: PAH PAECs, apelin 1 μM for 24 h
Experimental: Either control PAECs or PAH PAECs were transfected and lysed in lysis buffer (Promega). Renilla luciferase was used for normalization. Dual Luciferase Reporter System (Promega) was used according to the manufacturer's protocol. All experiments were performed three times in triplicates.

[14] = TMP269 intraperitoneal 50 mg/kg/day for two weeks
[15] = MCT and SUGEN models, MC1568 50 mg per kg intraperitoneal daily, vs. vehicle (DMSO)
[16] = Tasquinimod oral gavage 10 mg/kg/day for two weeks

In the case of `CCCC(CCC)C(=O)O` [valproic acid], the “effect on the right ventricle” value [1] is listed as “detrimental injury to the right ventricle”.

In the case of `O=C(NCC1(c2nc(-c3ccccc3)cs2)CCOCC1)c1cccc(-c2noc(C(F)(F)F)n2)c1` [TMP269, N-((4-(4-phenylthiazol-2-yl)tetrahydro-2H-pyran-4-yl)methyl)-3-(5-(trifluoromethyl)-1,2,4-oxadiazol-3-yl)benzamide], the “degradation of HDAC4” value (HDAC4 [2]) is reported as “degradation”, the “right ventricular hypertrophy (right ventricle to left ventricle plus septum weight ratios)” value [3, 14] is reported as “decreased” and the “right ventricular systolic pressures” value [3, 14] is reported as “significantly reduced”. The “degradation of HDAC5” value (HDAC5 [4]) was “degradation”, the “expression of Cx37, Cx40, and KLF2” value [5] was “significantly increased” and the “PAH PAEC migration” value (PAH PAECs [6]) was “inhibited”.

In the case of `Cn1c(/C=C/C(=O)NO)ccc1/C=C/C(=O)c1cccc(F)c1` [MC1568, (E)-3-(5-((E)-3-(3-fluorophenyl)-3-oxoprop-1-en-1-yl)-1-methyl-1H-pyrrol-2-yl)-N-hydroxyacrylamide], the “cellular apoptosis as assessed by caspase 3 cleavage” value [7] is reported as “did not result in caspase activation”, the “MEF2 transcriptional targets (Cx37, Cx40 and KLF2) expression” value [8] is reported as “increased” and the “degradation of HDAC4” value (HDAC4 [2]) is reported as “degradation”. The “selectivity for class IIa HDACs over other HDAC classes” value (class IIa HDACs) was “selective inhibition of class IIa HDACs, without affecting other HDAC classes”, the “myocardial fibrosis (trichrome staining of right ventricle, gross histology)” value ([3]; MCT and SUGEN groups, MC1568) was “no evidence of myocardial fibrosis” and the “muscularization of small arterioles” value [3, 15] was “significantly decreased”. For the same compound, the “right ventricle to left ventricle+septum weight ratios” value [3, 15] was “significant reduction”, the “right ventricular systolic pressures (RVSP)” value [3, 15] was “significant decrease” and the “PCNA-positive proliferating vascular cells” value ([3]; MCT and SUGEN models, lungs, MC1568 50 mg per kg intraperitoneal daily, vs. control groups) was “significantly fewer”. The “PAH PAEC proliferation” value (PAH PAECs [9]) was “significant reduction”, the “expression of FGF2 in the lungs” value (FGF2 [10]) was “significantly decreased” and the “degradation of HDAC5” value (HDAC5 [4]) was “degradation”. The “expression of Cx37, Cx40, and KLF2” value [5] was “significant increased expression”, the “expression of FGF2” value (FGF2 [11]) was “significant downregulation” and the “PAH PAEC migration” value (PAH PAECs [6]) was “significant reduction”.

In the case of apelin, the “phosphorylation of HDAC5” value (HDAC5 [12]) is reported as “marked increase in phosphorylation”, the “phosphorylation of HDAC4” value (HDAC4 [13]) is reported as “marked increase in phosphorylation” and the “cytoplasmic translocation of HDAC5-GFP” value (HDAC5-GFP) is reported as “robust cytoplasmic translocation”. For the same compound, the “cytoplasmic translocation of HDAC4-GFP” value (HDAC4-GFP) was “robust cytoplasmic translocation” and the MEF2 reporter activity (MEF2) was “significant augmentation”.

With `COc1cccc2c1c(O)c(C(=O)N(C)c1ccc(C(F)(F)F)cc1)c(=O)n2C` [Tasquinimod, 4-hydroxy-5-methoxy-N,1-dimethyl-2-oxo-N-[4-(trifluoromethyl)phenyl]-1,2-dihydroquinoline-3-carboxamide] the “right ventricular hypertrophy (right ventricle to left ventricle plus septum weight ratios)” value [3, 16] was “decreased” and the “right ventricular systolic pressures” value [3, 16] was “significantly reduced”.

For `CC(/C=C/C(=O)NO)=C\[C@@H](C)C(=O)c1ccc(N(C)C)cc1` [TSA, trichostatin A], the “cellular apoptosis as assessed by caspase 3 cleavage” value [7] is given as “marked induction of cellular apoptosis” and the “effect on the right ventricle” value [1] is given as “detrimental injury to the right ventricle”.
